Earlier results as cited in patent US4065616A, “Processes for production of a 1-N-(α-hydroxy-.PHI.-amino alkanoyl)-3-deoxy-5-O-pentafuranosyl neamine and new compounds produced by the same processes” (Zaidan Hojin Biseibutsu Kagaku Kenkyu Kai, priority 1975, dated 1977).

Key:
[1] = system: kanamycin-resistant bacteria; conditions: in words, prior work; cited from earlier work
[2] = clinical tests, in words; cited from earlier work

## NC[C@@H]1CC[C@@H](N)[C@@H](O[C@H]2[C@H](O)[C@@H](O[C@H]3O[C@H](CO)[C@@H](O)[C@H](N)[C@H]3O)[C@H](N)C[C@@H]2N)O1 [DKB, 3',4'-dideoxykanamycin B]
[1]
  antibacterial activity against resistant bacteria: high antibacterial activity against the above-mentioned resistant bacteria
[2]
  clinical usefulness: very useful and effective semi-synthetic antibiotic in clinical tests
